Data on 52 compounds can be found in patent US11478460B2, “Diaryl substituted 6,5-fused ring compounds as C5aR inhibitors” (CHEMOCENTRYX, INC., priority 2017, dated 2022).

The target of this experiment is C5aR (Homo sapiens (Human), UniProt P21730). Kind of experiment: Chemotaxis assay using U937 cells (C5aR mediated migration). The experiment is classed as cell-based. Conditions: read-out: Mig IC50. The method, then: U937 cells are a monocytic cell line which express C5aR, and are available from ATCC (VA). These cells were cultured as a suspension in RPMI-1640 medium supplemented with 2 mM L-glutamine, 1.5 g/L sodium bicarbonate, 4.5 g/L glucose, 10 mM HEPES, 1 mM sodium pyruvate, and 10% FBS. Cells were grown under 5% CO2/95% air, 100% humidity at 37° C. and subcultured twice weekly at 1:6 (cells were cultured at a density range of 1×10^5 to 2×10^6 cells/mL) and harvested at 1×10^6 cells/mL. Prior to assay, cells are treated overnight with 0.5 mM of cyclic AMP (Sigma, OH) and washed once prior to use. cAMP treated U937 cells can be used in C5aR ligand binding and functional assays.
Chain of C5aR (P21730 whole entry): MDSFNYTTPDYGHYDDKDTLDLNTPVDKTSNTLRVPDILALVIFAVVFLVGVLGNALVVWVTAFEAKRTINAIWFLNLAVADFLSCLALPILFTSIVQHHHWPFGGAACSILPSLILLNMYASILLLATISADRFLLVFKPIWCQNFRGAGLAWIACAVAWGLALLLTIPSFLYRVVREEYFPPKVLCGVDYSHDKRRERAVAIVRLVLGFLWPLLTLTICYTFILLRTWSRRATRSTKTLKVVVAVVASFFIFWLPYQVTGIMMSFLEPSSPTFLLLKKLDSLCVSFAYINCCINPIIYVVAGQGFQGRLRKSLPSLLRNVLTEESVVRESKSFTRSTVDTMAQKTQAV
Optionally, compounds may be further assayed for their ability to inhibit chemotaxis in cells. Chemotaxis assays are performed using 5 μm pore polycarbonate, polyvinylpyrrolidone-coated filters in 96-well chemotaxis chambers (Neuroprobe; Gaithersburg, Md.) using chemotaxis buffer (Hank's balanced salt solution (HBSS) and 1% FBS). C5aR ligands (i.e., C5a, R&D Systems; Minneapolis, Minn.) are use to evaluate compound mediated inhibition of C5aR mediated migration. Other chemokines (i.e., SDF-1α; R&D Systems; Minneapolis, Minn.) are used as specificity controls. The lower chamber is loaded with 29 μl of chemokine (i.e., 0.03 nM C5a) and varying amounts of compound; the top chamber contains 100,000 U937 or neutrophil cells in 20 μl. The chambers are incubated 1.5 hours at 37° C., and the number of cells in the lower chamber quantified either by direct cell counts in five high powered fields per well or by the CyQuant assay (Molecular Probes), a fluorescent dye method that measures nucleic acid content and microscopic observation.
The compounds in Table 1, below, were prepared using the methods described above. Characterization data is provided for each compound listed. Activity is provided as follows for the chemotaxis assay using U937 cells as described herein (Example 12): +, 500 nM<IC50; ++, 50 nM<IC50≤500 nM; +++, 5 nM<IC50≤50 nM; and ++++, IC50≤5 nM.
As for `Cc1cccc(OCC(C)C)c1-n1nc2c(c1-c1ccc(NC(N)=O)c(F)c1)CN(c1ncc(F)cc1Cl)CC2` [Example 1.228], the IC50 was no more than 5 nM. Under `CCc1cccc(CC)c1-n1nc2c(c1-c1cc(F)c(NC(N)=O)cc1F)CN(C(CC)c1ccccc1C(F)(F)F)CC2` (stereo not shown) [Example 1.144] stands no more than 5 nM; under `Cc1cccc(OCC(C)C)c1-n1nc2c(c1-c1ccc(NC(N)=O)cc1)CN(Cc1ccc(C(F)(F)F)cc1F)CC2` [Example 1.329], no more than 5 nM. Next, `CC[C@@H](c1ccccc1)N1CCc2nn(-c3c(C)cccc3C)c(-c3ccc(NC(N)=O)c(F)c3)c2C1` [Example 1.083]: 5 to 50 nM. Next, `CCc1cccc(CC)c1-n1nc2c(c1-c1cc(F)c(NC(N)=O)cc1F)CN(C(C)(C)c1ccccc1F)CC2` [Example 1.186]: no more than 5 nM. For the compound `COc1cccc(C)c1-n1nc2c(c1-c1ccc(NC(N)=O)nc1)CN(c1ccccc1C(C)C)CC2` [Example 1.447], the half-inhibitory concentration (IC50) lay within 50 to 500 nM. Under `Cc1cccc(C)c1-n1nc2c(c1-c1cc(F)c(NC(N)=O)cc1F)CN(c1ccc(Cl)cc1)CC2` [Example 1.095] stands no more than 5 nM.

For the compound `Cc1cccc(OCC(C)C)c1-n1nc2c(c1-c1ccc(NC(N)=O)cc1)CN(C(=O)c1ccccc1)CC2` [Example 1.431], the IC50 was 50 to 500 nM.

For the compound `CCC(c1ccccc1)N1CCc2nn(-c3c(C)cccc3OCC(C)C)c(-c3cc(F)c(NC(N)=O)cc3F)c2C1` (stereo not shown) [Example 1.145], the IC50 is no more than 5 nM.

On to `CCc1cccc(CC)c1-n1nc2c(c1-c1cc(F)c(NC(N)=O)cc1F)CN(Cc1ccc(C#N)cc1C(F)(F)F)CC2` [Example 1.048], for which the IC50 was no more than 5 nM.

For `CCc1cccc(CC)c1-n1nc2c(c1-c1cc(F)c(NC(N)=O)cc1F)CN(Cc1ccc(C(F)(F)F)cc1F)CC2` [Example 1.066], the IC50 is no more than 5 nM. Under `Cc1ccc(C(C)C)cc1N1CCc2nn(-c3c(C)cccc3OCC(C)C)c(-c3ccc(NC(N)=O)cc3)c2C1` [Example 1.396] stands 5 to 50 nM. Next, `CCc1cccc(CC)c1-n1nc2c(c1-c1cc(F)c(NC(N)=O)cc1F)CN(C(C)(C)c1cccc(F)c1)CC2` [Example 1.195]: no more than 5 nM. Turning to `Cc1cccc(F)c1CN1CCc2nn(-c3c(C)cccc3OCC(C)C)c(-c3ccc(NC(N)=O)cc3)c2C1` [Example 1.360], the IC50 is no more than 5 nM. Under `Cc1cccc(OCC(C)C)c1-n1nc2c(c1-c1ccc(NC(N)=O)c(F)c1)CN(Cc1ccc(C(F)(F)F)cc1C(F)(F)F)CC2` [Example 1.277] stands no more than 5 nM. As for `Cc1cc(NC(N)=O)c(F)cc1-c1c2c(nn1-c1c(C)cccc1C)CCN(c1ccc(C(F)(F)F)cc1F)C2` [Example 1.117], the IC50 was no more than 5 nM. Under `Cc1cccc(OCC(C)C)c1-n1nc2c(c1-c1ccc(NC(N)=O)cc1)CN(CC1(C(F)(F)F)CCCC1)CC2` [Example 1.366] stands 5 to 50 nM; under `Cc1ccc(C(C)(C)O)nc1N1CCc2nn(-c3c(C)cccc3OCC(C)C)c(-c3ccc(NC(N)=O)cc3)c2C1` [Example 1.383], 50 to 500 nM; under `Cc1cccc(OCC(C)C)c1-n1nc2c(c1-c1ccc(NC(=O)N(C)C)cc1)CN(c1ncc(C(F)(F)F)cc1F)CC2` [Example 1.289], greater than 500 nM.

Regarding `CCc1cccc(CC)c1-n1nc2c(c1-c1cc(F)c(NC(N)=O)cc1F)CN(C(CC)c1ccccc1F)CC2` (stereo not shown) [Example 1.150], the IC50 was no more than 5 nM. `Cc1ccc(C(F)(F)F)cc1N1CCc2nn(-c3c(C)cccc3OCC(C)C)c(-c3ccc(NC(N)=O)cc3)c2C1` [Example 1.418]: the IC50 lay within 5 to 50 nM. Next, `Cc1cccc(OCC(C)C)c1-n1nc2c(c1-c1ccc(NC(N)=O)cc1)CN(C(=O)C1CCCC1)CC2` [Example 1.438]: 50 to 500 nM. Turning to `CCc1cccc(C)c1-n1nc2c(c1-c1ccc(NC(N)=O)cc1)CN(c1cc(C(C)(C)C)ccc1C)CC2` [Example 1.380], the 50% inhibitory concentration (IC50) fell in the range of 5 to 50 nM. Next, `CCc1cccc(CC)c1-n1nc2c(c1-c1cc(F)c(NC(N)=O)cc1F)CN(c1ncc(Cl)cc1Cl)CC2` [Example 1.201]: no more than 5 nM.

For the compound `Cc1cccc(OCC(C)C)c1-n1nc2c(c1-c1ccc(NC(N)=O)cc1)CN(Cc1c(F)cc(F)cc1F)CC2` [Example 1.307], the IC50 fell in the range of 5 to 50 nM. Next, `Cc1cccc(OCC(C)C)c1-n1nc2c(c1-c1cc(F)c(NC(N)=O)cc1F)CN(c1ncccc1Cl)CC2` [Example 1.170]: no more than 5 nM. For `Cc1cccc(OCC(C)C)c1-n1nc2c(c1-c1ccc(C(C)(C)O)cc1)CN(c1ccccc1C(C)(C)C)CC2` [Example 1.449], the IC50 was greater than 500 nM. With `Cc1ccc(C(C)(C)C)cc1N1CCc2nn(-c3c(C)cccc3OCC(C)C)c(-c3ccc(NC(N)=O)cc3)c2C1` [Example 1.457], the IC50 was no more than 5 nM.

As to `CCc1cccc(CC)c1-n1nc2c(c1-c1cc(F)c(NC(N)=O)cc1F)CN(Cc1ccccc1C(F)(F)F)C(C)(C)C2` [Example 1.027], the IC50 is no more than 5 nM. For `CCc1cccc(CC)c1-n1nc2c(c1-c1cc(F)c(NC(N)=O)cc1F)CN(Cc1cnc(C)cc1C)CC2` [Example 1.026], the IC50 lay within 5 to 50 nM.

Regarding `Cc1cccc(C)c1-n1nc2c(c1-c1ccc(N)cc1)CN(c1ccccc1C(C)C)CC2` [Example 1.481], the IC50 was in the range of 5 to 50 nM. Take `COc1cc(F)c(-c2c3c(nn2-c2c(C)cccc2C)CCN(c2ncc(Cl)cc2Cl)C3)cc1F` [Example 1.121]: the IC50 was greater than 500 nM. Next, `Cc1cccc(OCC(C)C)c1-n1nc2c(c1-c1ccc(NC(N)=O)cc1)CN(c1cc(C(C)(C)C)ccn1)CC2` [Example 1.395]: 5 to 50 nM; `Cc1cnc(C(C)C)cc1N1CCc2nn(-c3c(C)cccc3OCC(C)C)c(-c3ccc(NC(N)=O)cc3)c2C1` [Example 1.348]: 5 to 50 nM; `CCc1cccc(CC)c1-n1nc2c(c1-c1cc(F)c(NC(N)=O)cc1F)CN(Cc1ccccc1)C(C)C2` (stereo not shown) [Example 1.151]: no more than 5 nM. Next, `Cc1cccc(OCC(C)C)c1-n1nc2c(c1-c1ccc(NC(N)=O)cc1)CN(c1ncc(C(F)(F)F)cc1Cl)CC2` [Example 1.353]: 5 to 50 nM; `CCc1cccc(CC)c1-n1nc2c(c1-c1cc(F)c(NC(N)=O)cc1OC)CN(Cc1ccc(C(F)(F)F)cc1C(F)(F)F)CC2` [Example 1.042]: no more than 5 nM. Regarding `Cc1cccc(OCC(C)C)c1-n1nc2c(c1-c1ccc(NC(N)=O)cc1)CN(CCC(C)(C)C)CC2` [Example 1.393], the IC50 is 50 to 500 nM. Next, `CCc1cccc(CC)c1-n1nc2c(c1-c1cc(F)c(NC(N)=O)cc1F)CN(c1ncc(Cl)cc1Cl)[C@H](C)C2` [Example 1.018]: no more than 5 nM; `Cc1cccc(OCC(C)C)c1-n1nc2c(c1-c1ccc(NC(N)=O)cc1)CN(Cc1c(Cl)cccc1C(F)(F)F)CC2` [Example 1.362]: no more than 5 nM; `Cc1cccc(OCC(C)C)c1-n1nc2c(c1-c1ccc(NC(N)=O)cc1)CN(Cc1cc(Cl)ccc1F)CC2` [Example 1.309]: no more than 5 nM.

For the compound `COc1cc(CN2CCc3nn(-c4c(C)cccc4OCC(C)C)c(-c4ccc(NC(N)=O)cc4)c3C2)c(F)cc1Cl` [Example 1.305], the 50% inhibitory concentration (IC50) was in the range of 5 to 50 nM. Under `Cc1cnc(N2CCc3nn(-c4c(C)cccc4OCC(C)C)c(-c4ccc(NC(N)=O)c(F)c4)c3C2)c(Cl)c1` [Example 1.213] stands no more than 5 nM. Take `Cc1cccc(OCC(C)C)c1-n1nc2c(c1-c1ccc(NC(N)=O)cc1)CN(Cc1ccccc1C(F)(F)F)CC2` [Example 1.361]: the IC50 was no more than 5 nM. Next, `COc1ccc(Cl)c(CN2CCc3nn(-c4c(C)cccc4OCC(C)C)c(-c4ccc(NC(N)=O)cc4)c3C2)c1` [Example 1.302]: 5 to 50 nM; `CC[C@@H](c1ccccc1)N1CCc2nn(-c3c(C)cccc3C)c(-c3ccc(NC(N)=O)cc3)c2C1` [Example 1.082]: 50 to 500 nM. Under `Cc1cccc(OCC(C)C)c1-n1nc2c(c1-c1ccc(NC(N)=O)c(F)c1)CN(c1nccn3ccnc13)CC2` [Example 1.245] stands 5 to 50 nM; under `CCc1cccc(CC)c1-n1nc2c(c1-c1cc(F)c(NC(N)=O)cc1F)CN(C(C)c1ccccc1F)CC2` (stereo not shown) [Example 1.161], no more than 5 nM.

Take `CCc1cccc(CC)c1-n1nc2c(c1-c1cc(F)c(NC(N)=O)cc1F)CN(Cc1cc(Cl)ccc1C(F)(F)F)CC2` [Example 1.069]: the IC50 is no more than 5 nM. With `Cc1cccc(C)c1-n1nc2c(c1-c1cc(F)c(NC(N)=O)cc1F)CN(c1ccc(C(C)(C)C)cc1Cl)CC2` [Example 1.098], the IC50 was no more than 5 nM. Under `Cc1cccc(C)c1-n1nc2c(c1-c1cc(F)c(NC(N)=O)cc1F)CN(c1ccc(F)cc1Cl)CC2` [Example 1.106] stands no more than 5 nM; under `Cc1cccc(OCC(C)C)c1-n1nc2c(c1-c1cc(F)c(NC(N)=O)cc1F)CN(c1ccnc(C(C)C)n1)CC2` [Example 1.139], no more than 5 nM.
